Structures can show the parent of a compound that is named as a salt. Where two headings read alike, the source gives them in different places.
Key:
Experiment in all cases: biochemical
[1] = molecular target: T1, SARS-CoV-2 PLpro (nsp3 1564–1878) (Severe acute respiratory syndrome coronavirus 2, UniProt P0DTD1); format: biochemical; details: screen, Table S1; for Normalized activity High (3.75 µM) / Normalized activity Low (1.25µM): normalized to control without compound
[2] = molecular target: T1, SARS-CoV-2 PLpro (nsp3 1564–1878); set-up: FRET-quenched peptide (Pro3) cleavage by PLpro, 10 min pre-incubation, slope over 20 min, normalised to no-compound control; details: low concentration screen, read-out: % of control remaining
[3] = molecular target: T1, SARS-CoV-2 PLpro (nsp3 1564–1878); set-up: FRET-quenched peptide (Pro3) cleavage by PLpro, 10 min pre-incubation, slope over 20 min, normalised to no-compound control; details: high concentration screen, read-out: % of control remaining

With `Cn1c(=O)c2[nH]c(-c3ccc(S(=O)(=O)O)cc3)nc2n(C)c1=O` [8-(p-Sulfophenyl)theophylline] the Z score [1] was -14.155, the “Normalized activity High (3.75 µM)” value [1] was 0 and the “Normalized activity Low (1.25µM)” value [1] was 0.9534.

`CC[C@@H]1Cc2cc(O)ccc2C2=C1c1ccc(O)cc1C[C@H]2CC` (relative stereo) [(R,R)-cis-Diethyl tetrahydro-2,8-chrysenediol] was tested, and the Z score [1] was -14.155, the “Normalized activity High (3.75 µM)” value [1] was 0 and the “Normalized activity Low (1.25µM)” value [1] was 0.8033.

In the case of `CCCn1c(=O)c2[nH]c(-c3ccc(S(=O)(=O)O)cc3)nc2n(CCC)c1=O` [1,3-Dipropyl-8-p-sulfophenylxanthine], the Z score [1] is reported as -14.155, the “Normalized activity High (3.75 µM)” value [1] is reported as 0 and the “Normalized activity Low (1.25µM)” value [1] is reported as 0.885.

For `CN(NC(=O)CC(=O)NN(C)C(=S)c1ccccc1)C(=S)c1ccccc1` [Elesclomol], the remaining activity at 1.25 µM ([2]; Well no.=5001) was 104%, the remaining activity at 1.25 µM ([2]; Well no.=6406) was 102% and the remaining activity at 3.75 µM ([3]; Well no.=5001) was 107%. The remaining activity at 3.75 µM ([3]; Well no.=6406) was 111%.

In the case of `CCCN(CCC)C(=O)Cc1c(-c2ccc(Cl)cc2)nc2ccc(Cl)cn12` [Alpidem], the remaining activity at 1.25 µM ([2]; Well no.=5821) is reported as 108% and the remaining activity at 3.75 µM ([3]; Well no.=5821) is reported as 106%.

`OCCOCCN1CCN(C2=Nc3ccccc3Sc3ccccc32)CC1` [Quetiapine Fumarate] gave a remaining activity at 1.25 µM ([2]; Well no.=1684) of 99.2% and a remaining activity at 3.75 µM ([3]; Well no.=1684) of 100%.

`NC(=O)c1ccc(N(C(N)=O)c2c(F)cccc2F)nc1-c1ccc(F)cc1F` [VX702] was tested, and the remaining activity at 1.25 µM ([2]; Well no.=2943) was 104% and the remaining activity at 3.75 µM ([3]; Well no.=2943) was 105%.

`N[C@H](C(=O)O)c1cccc(O)c1` (racemic) was tested, and the remaining activity at 1.25 µM ([2]; Well no.=476) was 101% and the remaining activity at 3.75 µM ([3]; Well no.=476) was 97%.

Work on `COc1ccc([C@@H]2OC[C@@H]3[C@H]2CO[C@H]3c2ccc(OC)c(OC)c2)cc1OC` [Eudesmine] yielded a remaining activity at 1.25 µM ([2]; Well no.=3117) of 95.1% and a remaining activity at 3.75 µM ([3]; Well no.=3117) of 88.7%.

`C[C@H](NC(=O)/C(C#N)=C/c1cccc(Br)n1)c1ccccc1` [WP1066] gave a remaining activity at 1.25 µM ([2]; Well no.=4779) of 103% and a remaining activity at 3.75 µM ([3]; Well no.=4779) of 99%.

`Clc1ccc(Nc2nnc(Cc3ccncc3)c3ccccc23)cc1` [Vatalanib] showed a remaining activity at 1.25 µM ([2]; Well no.=1619) of 97% and a remaining activity at 3.75 µM ([3]; Well no.=1619) of 95.2%.

With `C1=C2CCCN[C@H]2[C@@H]2C[C@H]1[C@H]1CCCCN1C2` [Aloperine] the remaining activity at 1.25 µM ([2]; Well no.=5240) was 94.5% and the remaining activity at 3.75 µM ([3]; Well no.=5240) was 94%.

`CCCCCCCCCCCCCCCCCCCCCC(=O)O` [Docosanoic acid] was tested, and the remaining activity at 1.25 µM ([2]; Well no.=4456) was 100% and the remaining activity at 3.75 µM ([3]; Well no.=4456) was 99.7%.

Work on `CN1CC[C@H](c2c(O)cc(O)c3c(=O)cc(-c4ccccc4Cl)oc23)[C@H](O)C1` [Alvocidib] yielded a remaining activity at 1.25 µM ([2]; Well no.=2695) of 98.7% and a remaining activity at 3.75 µM ([3]; Well no.=2695) of 104%.

With `CC#CCOC(=O)c1c(C)nc2sc3c(c2c1N)CCC(O)C3` (stereo not drawn) [SB 205384] the remaining activity at 1.25 µM ([2]; Well no.=1508) was 97.4% and the remaining activity at 3.75 µM ([3]; Well no.=1508) was 96.2%.

Work on `CCCCCCOC(=O)NC(=N)c1ccc(NCc2nc3cc(C(=O)N(CCC(=O)OCC)c4ccccn4)ccc3n2C)cc1` [Dabigatran Etexilate] yielded a remaining activity at 1.25 µM ([2]; Well no.=8192) of 95.6% and a remaining activity at 3.75 µM ([3]; Well no.=8192) of 82.3%.

Work on `O=C(O)CCC(=O)c1ccc(-c2ccccc2)cc1` [Fenbufen] yielded a remaining activity at 1.25 µM ([2]; Well no.=2078) of 100% and a remaining activity at 3.75 µM ([3]; Well no.=2078) of 102%.

`Oc1ccc2c3c1O[C@H]1c4[nH]c5ccccc5c4C[C@@]4(O)[C@@H](C2)N(CC2CC2)CC[C@]314` [Naltrindole (hydrochloride)] gave a remaining activity at 1.25 µM ([2]; Well no.=7227) of 103% and a remaining activity at 3.75 µM ([3]; Well no.=7227) of 97.5%.

`O=C(OCCN1CCOCC1)C1(c2ccccc2)CCCCC1` [PRE-084] gave a remaining activity at 1.25 µM ([2]; Well no.=1000) of 98.1% and a remaining activity at 3.75 µM ([3]; Well no.=1000) of 100%.

In the case of `O=C(c1ccc(/C=C/c2n[nH]c3ccccc23)cc1)N1CCNCC1` [KW 2449], the remaining activity at 1.25 µM ([2]; Well no.=5108) is reported as 102% and the remaining activity at 3.75 µM ([3]; Well no.=5108) is reported as 107%.

Compound `CC(C)(C)c1cc(C(C)(C)C)c(NC(=O)c2c[nH]c3ccccc3c2=O)cc1O` [Ivacaftor (VX-770)] has a remaining activity at 1.25 µM ([2]; Well no.=5055) of 105% and a remaining activity at 3.75 µM ([3]; Well no.=5055) of 102%.

Work on `COc1cc(/C=C/C(=O)NCCn2c(C)cc3ccccc32)cc(OC)c1OC` [(E)-N-(2-(2-methyl-1H-indol-1-yl)ethyl)-3-(3,4,5-trimethoxyphenyl)acrylamide] yielded a remaining activity at 1.25 µM ([2]; Well no.=5914) of 103% and a remaining activity at 3.75 µM ([3]; Well no.=5914) of 99.4%.

Work on `CCc1nn(CCCN2CCN(c3cccc(Cl)c3)CC2)c(=O)n1CCOc1ccccc1` [Nefazodone] yielded a remaining activity at 1.25 µM ([2]; Well no.=2009) of 101% and a remaining activity at 3.75 µM ([3]; Well no.=2009) of 101%.

`C=C1O[C@@](CO)(n2cnc3c(N)ncnc32)[C@H](O)[C@@H]1O` [Decoyinine] gave a remaining activity at 1.25 µM ([2]; Well no.=3223) of 100% and a remaining activity at 3.75 µM ([3]; Well no.=3223) of 104%.

Compound `CCCCC(=O)O[C@H]1CC[C@H]2[C@@H]3CCc4cc(O)ccc4[C@H]3CC[C@]12C` [Estradiol valerate] has a remaining activity at 1.25 µM ([2]; Well no.=5365) of 95.5% and a remaining activity at 3.75 µM ([3]; Well no.=5365) of 99.5%.

In the case of `C#Cc1cccc(Nc2ncnc3cc(OC)c(OCCCCCCC(=O)NO)cc23)c1` [CUDC-101], the remaining activity at 1.25 µM ([2]; Well no.=5097) is reported as 104% and the remaining activity at 3.75 µM ([3]; Well no.=5097) is reported as 108%.

In the case of `N[C@@H](CCC(=O)O)C(=O)O` [L-Glutamic acid hydrochloride], the remaining activity at 1.25 µM ([2]; Well no.=619) is reported as 102% and the remaining activity at 3.75 µM ([3]; Well no.=619) is reported as 97.5%.

Work on `Nc1nc2[nH]cc(CCc3ccc(C(=O)N[C@@H](CCC(=O)O)C(=O)O)cc3)c2c(=O)[nH]1` [Pemetrexed (disodium)] yielded a remaining activity at 1.25 µM ([2]; Well no.=7500) of 102% and a remaining activity at 3.75 µM ([3]; Well no.=7500) of 93.5%.

`CCCN(CCC)[C@@H]1CCc2c(F)ccc(O)c2C1` [R(+)-UH-301 hydrochloride] was tested, and the remaining activity at 1.25 µM ([2]; Well no.=1382) was 98.7% and the remaining activity at 3.75 µM ([3]; Well no.=1382) was 98.5%.

Work on `Cn1ccc2cc3c(cc21)CCN3C(=O)Nc1cccnc1` [SB 206553 hydrochloride] yielded a remaining activity at 1.25 µM ([2]; Well no.=1375) of 99.8% and a remaining activity at 3.75 µM ([3]; Well no.=1375) of 101%.

`CC(=O)OCC[N+](C)(C)C` [Acetylcholine] was tested, and the remaining activity at 1.25 µM ([2]; Well no.=1550) was 96.7% and the remaining activity at 3.75 µM ([3]; Well no.=1550) was 98.7%.

`NCC(O)c1cc(O)c(O)cc1F` (stereo not drawn) [6-Fluoronorepinephrine hydrochloride] gave a remaining activity at 1.25 µM ([2]; Well no.=227) of 97.7% and a remaining activity at 3.75 µM ([3]; Well no.=227) of 97%.

`N[C@H](CO)C(=O)O` [(R)-Serine] showed a remaining activity at 1.25 µM ([2]; Well no.=7739) of 99.9% and a remaining activity at 3.75 µM ([3]; Well no.=7739) of 100%.

`CN1C[C@@H]2c3ccccc3Oc3ccc(Cl)cc3[C@H]2C1` (racemic) [Asenapine (maleate)] was tested, and the remaining activity at 1.25 µM ([2]; Well no.=6513) was 102% and the remaining activity at 3.75 µM ([3]; Well no.=6513) was 103%.

With `[N-]=[N+]=N[C@]1(CO)O[C@@H](n2ccc(N)nc2=O)[C@H](O)[C@@H]1O` [R-1479] the remaining activity at 1.25 µM ([2]; Well no.=7756) was 97.4% and the remaining activity at 3.75 µM ([3]; Well no.=7756) was 99%.

From PMC8286840, “Identifying SARS-CoV-2 antiviral compounds by screening for small molecule inhibitors of Nsp3 papain-like protease” (Biochemical Journal, 2021)
